The source of these data is PubChem BioAssay AID256 (DTP/NCI, 2004).

In this experiment the test system is CD2F1 mice, L1210 leukemia ip, survival T/C. As to the kind of experiment: NCI In Vivo Anticancer Drug Screen. Data for tumor model L1210 Leukemia (intraperitoneal) in CD2F1 (CDF1) mice. The conditions noted are these: higher = longer survival. The gist of the method:
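Compound-dosed mice with transplantable tumor versus matched vehicle controls; endpoint ratio T/C reported.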

Setting [1] is: endpoint: mean survival time, dose: 50.0 mg/kg/injection, schedule: Q01DX009 (ip), vehicle: saline with Tween-80.
[2] abbreviates: endpoint: mean survival time, dose: 200.0 mg/kg/injection, schedule: Q01DX009 (ip), vehicle: saline with Tween-80.
[3] abbreviates: endpoint: mean survival time, dose: 100.0 mg/kg/injection, schedule: Q01DX009 (ip), vehicle: saline with Tween-80.
Setting [4] is: endpoint: mean survival time, dose: 100.0 mg/kg/injection, schedule: Q04DX003 (ip), vehicle: saline with Tween-80.
[5] abbreviates: endpoint: mean survival time, dose: 200.0 mg/kg/injection, schedule: Q04DX003 (ip), vehicle: saline with Tween-80.

Values joined by “and” are separate entries in the source; they are usually repeats but may differ in a detail not shown here. Equal entries are not always repeated. Toxic doses and inconclusive results are not listed.

`O=P1(NCCCl)OC(c2ccccc2)=CCN1CCCl` (stereo unspecified): the T/C is 102 % of control (endpoint: median survival time, dose: 31.25 mg/kg/injection, schedule: Q01DX001 (ip), vehicle: distilled water + Tween-80); 97 % of control (endpoint: median survival time, dose: 62.5 mg/kg/injection, schedule: Q01DX001 (ip), vehicle: distilled water + Tween-80); 97 % of control (endpoint: median survival time, dose: 125.0 mg/kg/injection, schedule: Q01DX001 (ip), vehicle: distilled water + Tween-80); 101 % of control (endpoint: median survival time, dose: 250.0 mg/kg/injection, schedule: Q01DX001 (ip), vehicle: distilled water + Tween-80); 93 % of control (endpoint: median survival time, dose: 500.0 mg/kg/injection, schedule: Q01DX001 (ip), vehicle: distilled water + Tween-80).

On to `CC1CCC(C(C)C)C(OC(=O)N/N=C/N(C)C)C1` (stereo unspecified), for which the T/C is 95 % of control (endpoint: mean survival time, dose: 100.0 mg/kg/injection, schedule: Q01DX009 (ip), vehicle: other) and 119 % of control (endpoint: mean survival time, dose: 200.0 mg/kg/injection, schedule: Q01DX009 (ip), vehicle: other).

For the molecule `O=c1ccn2cnc3c(ncn3C3OC(CO)C(O)C3O)c2n1` (stereo unspecified), the T/C is, setting by setting: (endpoint: median survival time, dose: 12.5 mg/kg/injection, schedule: Q01DX005 (ip), vehicle: saline with Tween-80) 105 % of control; (endpoint: median survival time, dose: 25.0 mg/kg/injection, schedule: Q01DX005 (ip), vehicle: saline with Tween-80) 98 % of control; (endpoint: median survival time, dose: 50.0 mg/kg/injection, schedule: Q01DX005 (ip), vehicle: saline with Tween-80) 98 % of control; (endpoint: median survival time, dose: 100.0 mg/kg/injection, schedule: Q01DX005 (ip), vehicle: saline with Tween-80) 103 % of control; (endpoint: median survival time, dose: 200.0 mg/kg/injection, schedule: Q01DX005 (ip), vehicle: saline with Tween-80) 103 % of control.

Turning to `CC(=O)Nc1ccc(OCCOC(=O)Nc2ccc(Cl)cc2C)cc1`, the T/C is 98 % of control (endpoint: mean survival time, dose: 12.5 mg/kg/injection, schedule: Q01DX009 (ip), vehicle: saline with Tween-80); 95 % of control (endpoint: mean survival time, dose: 25.0 mg/kg/injection, schedule: Q01DX009 (ip), vehicle: saline with Tween-80); 95 % of control and 96 % of control under setting [1]; 92 % of control under setting [2].

As for `Brc1ccccc1CCc1ccccc1Br`, the T/C (endpoint: mean survival time, dose: 50.0 mg/kg/injection, schedule: Q04DX003 (ip), vehicle: saline) is 97 % of control; the T/C (endpoint: mean survival time, dose: 100.0 mg/kg/injection, schedule: Q04DX003 (ip), vehicle: saline) is 95 % of control; the T/C (endpoint: mean survival time, dose: 200.0 mg/kg/injection, schedule: Q04DX003 (ip), vehicle: saline) is 100 % of control.

Take `Nc1ncnc2c1ccn2C1OC(CO)CC1O` (stereo unspecified): the T/C reads like this: (endpoint: mean survival time, dose: 75.0 mg/kg/injection, schedule: Q01DX001 (ip), vehicle: saline) 103 % of control; (endpoint: mean survival time, dose: 150.0 mg/kg/injection, schedule: Q01DX001 (ip), vehicle: saline) 100 % of control; (endpoint: mean survival time, dose: 300.0 mg/kg/injection, schedule: Q01DX001 (ip), vehicle: saline) 109 % of control.

As for `CCOC(=O)C1CC(O)CN1` (stereo unspecified), the T/C is, setting by setting: (endpoint: mean survival time, dose: 100.0 mg/kg/injection, schedule: Q01DX009 (ip), vehicle: saline sonified) 98 % of control; (endpoint: mean survival time, dose: 200.0 mg/kg/injection, schedule: Q01DX009 (ip), vehicle: saline sonified) 95 % of control; (endpoint: mean survival time, dose: 400.0 mg/kg/injection, schedule: Q01DX009 (ip), vehicle: saline sonified) 92 % of control.

Take `O=C(O)C1Cc2c([nH]c3ccccc23)C2CCC(=O)N12` (stereo unspecified): the T/C by setting is: (endpoint: mean survival time, dose: 100.0 mg/kg/injection, schedule: Q04DX002 (ip), vehicle: saline with Tween-80) 100 % of control; (endpoint: mean survival time, dose: 200.0 mg/kg/injection, schedule: Q04DX002 (ip), vehicle: saline with Tween-80) 108 % of control; (endpoint: mean survival time, dose: 400.0 mg/kg/injection, schedule: Q04DX002 (ip), vehicle: saline with Tween-80) 100 % of control.

For the molecule `CCCCOC(=O)c1ccc(NC(=O)Nc2ccccc2Cl)cc1`, the T/C was 89 % of control under setting [1]; 86 % of control under setting [3]; 91 % of control under setting [4]; 96 % of control under setting [2]; 100 % of control under setting [5].

With `CC(=O)O/C=C1\CC2C3CC=C4CC(OC(C)=O)CCC4(C)C3CCC2(C)C1=O` (stereo unspecified), the T/C is, setting by setting: (endpoint: mean survival time, dose: 25.0 mg/kg/injection, schedule: Q01DX001 (ip), vehicle: saline with Tween-80) 100 % of control; (endpoint: mean survival time, dose: 50.0 mg/kg/injection, schedule: Q01DX001 (ip), vehicle: saline with Tween-80) 95 % of control; (endpoint: mean survival time, dose: 100.0 mg/kg/injection, schedule: Q01DX001 (ip), vehicle: saline with Tween-80) 95 % of control.

With `CC[C@@H](O)C[C@H]1CCC[C@@]2(C[C@@H]3OC(=O)/C=C/[C@@](C)(O)[C@@H](O)[C@H](C)[C@@H](O)[C@H](OC4CCC(N(C)C)C(C)O4)[C@@H](O)[C@](C)(O)CCCCC/C=C/[C@@H]4CC(C)(C)O[C@@]4(O)C[C@H](O2)[C@H]3C)O1` (stereo partly specified), the T/C (endpoint: mean survival time, dose: 0.25 mg/kg/injection, schedule: Q01DX009 (ip), vehicle: saline) was 109 % of control.

With `O=[N+]([O-])c1ccc(C[P+](c2ccccc2)(c2ccccc2)c2ccccc2)cc1`, the T/C reads like this: (endpoint: mean survival time, dose: 6.25 mg/kg/injection, schedule: Q04DX002 (ip), vehicle: saline with Tween-80) 86 % of control; (endpoint: mean survival time, dose: 12.5 mg/kg/injection, schedule: Q04DX002 (ip), vehicle: saline with Tween-80) 108 % of control; (endpoint: mean survival time, dose: 25.0 mg/kg/injection, schedule: Q04DX002 (ip), vehicle: saline with Tween-80) 94 % of control.

With `Cc1ccc(S(=O)(=O)OCCC=C(c2ccccc2)c2ccccc2)cc1`, the T/C runs as follows: under setting [1], 101 % of control; under setting [3], 101 % of control; under setting [2], 96 % of control.

On to `COc1ccc(OC)c(/C=N/N=C/c2cc(OC)ccc2OC)c1`, for which the T/C under setting [4] is 106 % of control; the T/C under setting [5] was 94 % of control; the T/C (endpoint: mean survival time, dose: 400.0 mg/kg/injection, schedule: Q04DX003 (ip), vehicle: saline with Tween-80) is 94 % of control.

For the molecule `COC(=O)/C=N/Nc1ccc(C)cc1`, the T/C (endpoint: mean survival time, dose: 100.0 mg/kg/injection, schedule: Q01DX009 (ip), vehicle: water) was 86 % of control; the T/C (endpoint: mean survival time, dose: 200.0 mg/kg/injection, schedule: Q01DX009 (ip), vehicle: water) was 88 % of control; the T/C (endpoint: mean survival time, dose: 400.0 mg/kg/injection, schedule: Q01DX009 (ip), vehicle: water) was 86 % of control.

On to `CC(=O)O[C@@H]1C[C@H](C)CC[C@H]1C(C)C`, for which the T/C reads like this: under setting [4], 98 % of control; under setting [5], 89 % of control.

As to `CCC(=O)OCC1OC(n2ccc(O)cc2=O)C(O)C1O` (stereo unspecified), the T/C runs as follows: (endpoint: median survival time, dose: 44.0 mg/kg/injection, schedule: Q01DX009 (ip), vehicle: saline + alcohol) 178 % of control; (endpoint: median survival time, dose: 67.0 mg/kg/injection, schedule: Q01DX009 (ip), vehicle: saline + alcohol) 174 % of control; (endpoint: median survival time, dose: 100.0 mg/kg/injection, schedule: Q01DX009 (ip), vehicle: saline + alcohol) 174 % of control; (endpoint: median survival time, dose: 150.0 mg/kg/injection, schedule: Q01DX009 (ip), vehicle: saline + alcohol) 153 % of control.

For `N#Cc1c(-c2ccc(F)cc2)c(-c2ccc(F)cc2)nn(CCO)c1=O`, the T/C was 98 % of control and 100 % of control (endpoint: median survival time, dose: 12.5 mg/kg/injection, schedule: Q01DX005 (ip), vehicle: distilled water + Tween-80); 98 % of control and 100 % of control (endpoint: median survival time, dose: 25.0 mg/kg/injection, schedule: Q01DX005 (ip), vehicle: distilled water + Tween-80); 102 % of control and 104 % of control (endpoint: median survival time, dose: 50.0 mg/kg/injection, schedule: Q01DX005 (ip), vehicle: distilled water + Tween-80); 106 % of control and 111 % of control (endpoint: median survival time, dose: 72.0 mg/kg/injection, schedule: Q01DX005 (ip), vehicle: water); 107 % of control (endpoint: median survival time, dose: 100.0 mg/kg/injection, schedule: Q01DX005 (ip), vehicle: distilled water + Tween-80); 118 % of control (endpoint: median survival time, dose: 108.0 mg/kg/injection, schedule: Q01DX005 (ip), vehicle: distilled water + Tween-80). Further, the T/C is 121 % of control and 123 % of control (endpoint: median survival time, dose: 120.0 mg/kg/injection, schedule: Q01DX005 (ip), vehicle: water); 124 % of control (endpoint: median survival time, dose: 180.0 mg/kg/injection, schedule: Q01DX005 (ip), vehicle: distilled water + Tween-80); 110 % of control (endpoint: median survival time, dose: 200.0 mg/kg/injection, schedule: Q01DX005 (ip), vehicle: distilled water + Tween-80); 325 % of control (endpoint: median survival time, dose: 333.3 mg/kg/injection, schedule: Q01DX005 (ip), vehicle: water); 196 % of control (endpoint: median survival time, dose: 333.33 mg/kg/injection, schedule: Q01DX005 (ip), vehicle: water); 204 % of control (endpoint: median survival time, dose: 500.0 mg/kg/injection, schedule: Q01DX005 (ip), vehicle: distilled water + Tween-80). In addition, the T/C (endpoint: median survival time, dose: 555.55 mg/kg/injection, schedule: Q01DX005 (ip), vehicle: water) was 264 % of control.

Regarding `NCC(=O)Nc1ccccc1`, the T/C (endpoint: mean survival time, dose: 100.0 mg/kg/injection, schedule: Q01DX009 (ip), vehicle: saline) was 103 % of control; the T/C (endpoint: mean survival time, dose: 200.0 mg/kg/injection, schedule: Q01DX009 (ip), vehicle: saline) is 113 % of control; the T/C (endpoint: mean survival time, dose: 400.0 mg/kg/injection, schedule: Q01DX009 (ip), vehicle: saline) is 97 % of control.
